# Results published in patent US11331289B2, “Antimicrobial composition” (priority 2017, dated 2022).
# Like-named read-outs stand apart in the source and are kept apart here.
# How the values were obtained:
# MRSP 16125 = assay: Time-killing curve, inoculum 10^6 CFU/ml (MIC 0.5 μg/ml); type: cell-based, Staphylococcus pseudintermedius
# Experimental: (§1) The objective of this study is to assess in vitro the time-killing curves of oxyclozanide against four strains of Methicillin-Resistant Staphylococcus from dogs.
# (§2) Two Methicillin-Resistant Staphylococcus aureus (MRSA) and two Methicillin-Resistant Staphylococcus pseudintermedius (MRSP) isolated from the clinics have been tested.
# (§3) The assessment of time-killing curves has been realized by a broth macrodilution method (Mueller-Hinton II Broth).
# (§4) Oxyclozanide is diluted in (DMSO) into sterile tubes in order to obtain the following concentrations from 800 to 6.25 μg/ml. Those concentrations and stock standard solution are then diluted (1/10) in Mueller-Hinton II Broth in order to obtain the following concentrations from […] (See Table 2).
# (§5) Each operation is performed under sterile conditions. Each working standard solution (10*the final active ingredient concentration) is distributed in tubes (1 ml, for a final volume of 10 ml after addition of 9 ml of inoculum). One tube without active ingredient is used as growth control (Concentration=0).
# (§6) Bacterial isolates are sub-cultured from one cryobead on Columbia agar supplemented with 5% of blood. Pure cultures are incubated during 18-24 hours at 37° C. Three to five isolated colonies of similar appearance are selected from a previous culture and transferred into tubes containing 9 ml of Mueller-Hinton II Broth. The broth is incubated during 12-18 hours at 37° C. 0.5 to 1 ml of this broth is inoculated to another Mueller-Hinton II Broth 9 ml tube which is incubated during 3 to 4 hours at 37° C. to reach the exponential growth phase. The bacterial inoculum grown exponential phase is suspended to an optical density of McFarland standard scale 0.5 equivalent to a bacterial density of 10^8 CFU/ml and then adjusted to a concentration of about 5.10^5 CFU/ml as indicated by the guideline CLSI M26-A and to a second inoculum tested: 10^6 CFU/ml.
# (§7) 9 ml of bacterial inoculum grown to exponential phase is added to 1 ml of active ingredient (or Mueller Hinton II Broth for the growth control). Tubes are incubated at 35° C. during 24 hours.
# (§8) At times 0, 2, 4, 6 and 24 hours, 100 μl of broth of each tube is sampled and diluted in microplates:
# (§9) Each well is re-cultured by streaking 10 μl on Columbia agar supplemented with 5% of blood. Plates are incubated at 37° C. during 18-24 hours incubation. Thus, residual bacterial concentrations are determined (CFU/ml). Results are expressed in log10 values of CFU/ml over-time in broth. Due to the procedure used, the minimal bacterial concentration that can be assessed is 10^2 CFU/ml.
# [1] = system: Staphylococcus aureus no 16302 and no 16315; assay: MIC of Oxyclozanide, broth microdilution method; type: cell-based
# Experimental: (§10) In this study, 2 Staphylococcus aureus and 2 Staphylococcus pseudintermedius were tested. These strains were chosen after determination of the Minimum Inhibitory Concentration (MIC) of Oxyclozanide using broth microdilution method.
# [2] = system: Staphylococcus pseudintermedius no 15401 and no 15410; assay: MIC of Oxyclozanide, broth microdilution method; type: cell-based
# Experimental: as §10
# MRSA 16116 = assay: Time-killing curve, inoculum 10^6 CFU/ml (MIC 0.5 μg/ml); type: cell-based, Staphylococcus aureus
# Experimental: as §1, §2, §3, §4, §5, §6, §7, §8, §9
structure (smiles),measurement,setting,value
O=C(Nc1cc(Cl)cc(Cl)c1O)c1c(O)c(Cl)cc(Cl)c1Cl [Oxyclozanide],Counting results,"MRSP 16125; 1 MIC, 0 h",1.000E+06 CFU/ml
same,Counting results,"MRSP 16125; 1 MIC, 2 h",1.000E+06 CFU/ml
same,Counting results,"MRSP 16125; 1 MIC, 4 h",1.500E+05 CFU/ml
same,Counting results,"MRSP 16125; 1 MIC, 6 h",1.000E+05 CFU/ml
same,Counting results,"MRSP 16125; 1 MIC, 24 h",4.100E+06 CFU/ml
same,Counting results,"MRSP 16125; 2 MIC, 0 h",1.000E+06 CFU/ml
same,Counting results,"MRSP 16125; 2 MIC, 2 h",1.600E+03 CFU/ml
same,Counting results,"MRSP 16125; 2 MIC, 4 h",1.000E+02 CFU/ml
same,Counting results,"MRSP 16125; 2 MIC, 6 h",1.000E+02 CFU/ml
same,Counting results,"MRSP 16125; 2 MIC, 24 h",1.000E+02 CFU/ml
same,Counting results,"MRSP 16125; 4 MIC, 0 h",1.000E+06 CFU/ml
same,Counting results,"MRSP 16125; 4 MIC, 2 h",5.000E+02 CFU/ml
same,Counting results,"MRSP 16125; 4 MIC, 4 h",1.000E+02 CFU/ml
same,Counting results,"MRSP 16125; 4 MIC, 6 h",1.000E+02 CFU/ml
same,Counting results,"MRSP 16125; 4 MIC, 24 h",1.000E+02 CFU/ml
same,Counting results,"MRSP 16125; 8 MIC, 0 h",1.000E+06 CFU/ml
same,Counting results,"MRSP 16125; 8 MIC, 2 h",1.000E+02 CFU/ml
same,Counting results,"MRSP 16125; 8 MIC, 4 h",1.000E+02 CFU/ml
same,Counting results,"MRSP 16125; 8 MIC, 6 h",1.000E+02 CFU/ml
same,Counting results,"MRSP 16125; 8 MIC, 24 h",1.000E+02 CFU/ml
same,Counting results,"MRSP 16125; 16 MIC, 0 h",1.000E+06 CFU/ml
same,Counting results,"MRSP 16125; 16 MIC, 2 h",1.000E+02 CFU/ml
same,Counting results,"MRSP 16125; 16 MIC, 4 h",1.000E+02 CFU/ml
same,Counting results,"MRSP 16125; 16 MIC, 6 h",1.000E+02 CFU/ml
same,Counting results,"MRSP 16125; 16 MIC, 24 h",1.000E+02 CFU/ml
same,Time to obtain bactericidal effect at 4 MIC,"MRSP 16125; 16125/10^6 CFU/ml, >=3 log10 decrease in CFU",2 h
same,Counting results,"MRSP 16125; ¼ MIC, 0 h",1.000E+06 CFU/ml
same,Counting results,"MRSP 16125; ¼ MIC, 2 h",1.500E+06 CFU/ml
same,Counting results,"MRSP 16125; ¼ MIC, 4 h",1.000E+07 CFU/ml
same,Counting results,"MRSP 16125; ¼ MIC, 6 h",1.000E+08 CFU/ml
same,Counting results,"MRSP 16125; ¼ MIC, 24 h",2.600E+09 CFU/ml
same,Counting results,"MRSP 16125; ½ MIC, 0 h",1.000E+06 CFU/ml
same,Counting results,"MRSP 16125; ½ MIC, 2 h",1.800E+06 CFU/ml
same,Counting results,"MRSP 16125; ½ MIC, 4 h",2.800E+06 CFU/ml
same,Counting results,"MRSP 16125; ½ MIC, 6 h",3.400E+06 CFU/ml
same,Counting results,"MRSP 16125; ½ MIC, 24 h",1.900E+08 CFU/ml
same,MIC,"[1]; Staphylococcus aureus, no 16302, read-out: MIC",0.5 mg/L
same,MIC,[1]; no 16315,0.5 mg/L
same,MIC,"[2]; Staphylococcus pseudintermedius, no 15401, read-out: MIC",0.125 mg/L
same,MIC,[2]; no 15410,0.125 mg/L
same,Counting results,"MRSA 16116; 1 MIC, 0 h",1.500E+06 CFU/ml
same,Counting results,"MRSA 16116; 1 MIC, 2 h",3.300E+05 CFU/ml
same,Counting results,"MRSA 16116; 1 MIC, 4 h",3.900E+05 CFU/ml
same,Counting results,"MRSA 16116; 1 MIC, 6 h",1.600E+06 CFU/ml
same,Counting results,"MRSA 16116; 1 MIC, 24 h",2.700E+07 CFU/ml
same,Counting results,"MRSA 16116; 2 MIC, 0 h",1.500E+06 CFU/ml
same,Counting results,"MRSA 16116; 2 MIC, 2 h",2.200E+04 CFU/ml
same,Counting results,"MRSA 16116; 2 MIC, 4 h",1.400E+03 CFU/ml
same,Counting results,"MRSA 16116; 2 MIC, 6 h",5.000E+02 CFU/ml
same,Counting results,"MRSA 16116; 2 MIC, 24 h",5.900E+05 CFU/ml
same,Counting results,"MRSA 16116; 4 MIC, 0 h",1.500E+06 CFU/ml
same,Counting results,"MRSA 16116; 4 MIC, 2 h",2.000E+02 CFU/ml
same,Counting results,"MRSA 16116; 4 MIC, 4 h",2.000E+02 CFU/ml
same,Counting results,"MRSA 16116; 4 MIC, 6 h",1.000E+02 CFU/ml
same,Counting results,"MRSA 16116; 4 MIC, 24 h",1.000E+02 CFU/ml
same,Counting results,"MRSA 16116; 8 MIC, 0 h",1.500E+06 CFU/ml
same,Counting results,"MRSA 16116; 8 MIC, 2 h",1.000E+02 CFU/ml
same,Counting results,"MRSA 16116; 8 MIC, 4 h",1.000E+02 CFU/ml
same,Counting results,"MRSA 16116; 8 MIC, 6 h",1.000E+02 CFU/ml
same,Counting results,"MRSA 16116; 8 MIC, 24 h",1.000E+02 CFU/ml
same,Counting results,"MRSA 16116; 16 MIC, 0 h",1.500E+06 CFU/ml
same,Counting results,"MRSA 16116; 16 MIC, 2 h",3.000E+02 CFU/ml
same,Counting results,"MRSA 16116; 16 MIC, 4 h",1.000E+02 CFU/ml
same,Counting results,"MRSA 16116; 16 MIC, 6 h",1.000E+02 CFU/ml
same,Counting results,"MRSA 16116; 16 MIC, 24 h",1.000E+02 CFU/ml
same,Time to obtain bactericidal effect at 4 MIC,"MRSA 16116; 16116/10^6 CFU/ml, >=3 log10 decrease in CFU",2 h
same,Counting results,"MRSA 16116; ¼ MIC, 0 h",1.500E+06 CFU/ml
same,Counting results,"MRSA 16116; ¼ MIC, 2 h",2.800E+06 CFU/ml
same,Counting results,"MRSA 16116; ¼ MIC, 4 h",2.600E+07 CFU/ml
same,Counting results,"MRSA 16116; ¼ MIC, 6 h",3.000E+08 CFU/ml
same,Counting results,"MRSA 16116; ¼ MIC, 24 h",3.900E+08 CFU/ml
same,Counting results,"MRSA 16116; ½ MIC, 0 h",1.500E+06 CFU/ml
same,Counting results,"MRSA 16116; ½ MIC, 2 h",3.000E+06 CFU/ml
same,Counting results,"MRSA 16116; ½ MIC, 4 h",3.600E+07 CFU/ml
same,Counting results,"MRSA 16116; ½ MIC, 6 h",2.300E+08 CFU/ml
same,Counting results,"MRSA 16116; ½ MIC, 24 h",3.100E+08 CFU/ml
